Laboratory results published in patent US20250057821A1, “METHODS OF TREATING MYELOID MALIGNANCIES USING BCL-2 INHIBITOR” (BeiGene Switzerland GmbH, priority 2022, published 2025).

Key:
patients with AML = assay: Clinical study: antileukemic activity of Compound A in combination with azacitidine in patients with AML; type: in vivo, human; conditions: for CR / CR+CRh: 80 mg x 10 day cohort (n=17); for CR/CRh: in combination with azacitidine 75 mg/m2 x 7 days, data cutoff 5 Sep. 2022
Method: The clinical study was conducted to evaluate the combination of Compound A and azacitidine in patients with myeloid malignancies, including acute myeloid leukemia (AML) (either treatment-naïve [TN] unfit for intensive induction chemotherapy or relapsed/refractory [R/R]), myelodysplastic syndrome (MDS), or MDS/myeloproliferative neoplasm (MPN). Patients with AML who were treatment-naive unfit for intensive chemotherapy or who are relapsed/refractory were enrolled into the AML cohorts; and patients with myelodysplastic syndrome (MDS) or MDS/myeloproliferative neoplasm (MPN) who were treatment-naïve with high-risk disease or who were relapsed/refractory were enrolled into the MDS cohorts. The AML cohorts enrolls patients with treatment-naive (TN) AML who are unfit for intensive chemotherapy and relapsed/refractory (R/R) AML. The treatment cycles are of 28 days for all AML cohorts, unless recommended otherwise by the Safety Monitoring Committee (SMC). Part 1 AML (Dose Regimen Finding; N≈18 to 36, i.e., a minimum of 6 and a maximum of 12/cohort) studied the safety and tolerability of different dose regimens of Compound A in combination with a fixed dose of azacitidine at 75 mg/m^2 for 7 days. After 3 patients have completed the dose-limiting toxicities (DLT) window, the SMC reviewed all available data and considered the probability of DLT rate to be >20% and recommended whether or not to enroll additional patients (ie, up to 12). If no additional patients were required, the SMC would recommend whether or not to open a subsequent dose regimen in Part 1 and whether to open the dose regimen for Part 2 expansion. […] The window to assess dose-limiting toxicity (DLT) is up to Day 28 for nonhematologic toxicities and Day 42 or initiation of Cycle 2 for hematologic toxicities. The AML Part 1 dose regimen finding cohorts are as follows: • A) Compound A 40 mg daily×10 days with azacitidine (Ramp-up dosing of Compound A: 5 mg, 10 mg, 20 mg, 40 mg) • B) Compound A 80 mg daily×10 days with azacitidine (Ramp-up dosing of Compound A: 10 mg, 20 mg, 40 mg, 80 mg) • C) Compound A 160 mg daily×10 days with azacitidine (Ramp-up dosing of Compound A: 20 mg, 40 mg, 80 mg, 160 mg) • D) Compound A 160 mg daily×28 days with azacitidine (Ramp-up dosing of Compound A: 20 mg, 40 mg, 80 mg, 160 mg) • E) Compound A 320 mg daily×21 days with azacitidine (Ramp-up dosing of Compound A: 40 mg, 80 mg, 160 mg, and 320 mg) • F) Compound A 320 mg daily×28 days with azacitidine (Ramp-up dosing of Compound A: 40 mg, 80 mg, 160 mg, and 320 mg) In all Part 1 AML cohorts and the Part 2 cohort receiving the 28-day dose regimen, the initial dose of azacitidine is given 1 day prior to administration of Compound A (designated as Day 0) to compare baseline PK samples of azacitidine monotherapy with azacitidine in combination with Compound A, which starts on Day 1. In the subsequent cycles and all remaining cohorts, azacitidine administration start on Day 1 concurrently with Compound A. Dosing schema in Part I AML is shown in FIG. 1. Part 2 AML (Safety Expansion; N≈60) treated up to the cohorts each consisting of approximately 10 patients with dose regimens as defined in Part 1 and recommended by the SMC to proceed to Part 2. Part 2 of the study determined safety and antileukemic activity in a larger number of patients with a longer follow-up at dose regimens that were declared tolerable with early signs of activity in Part 1. At a given time, more than one dose regimen may be approved for expansion in Part 2; however, only a single Part 2 AML cohort was to be offered to prospective participants. Patients were preferentially enrolled in any open Part 1 cohort, if applicable. Each Part 2 cohort would continue to enroll up to 10 patients; this would include any additional patients enrolled in Part 1 but not needed for the initial SMC safety review of that cohort. […]

[1] = tested on: patients with AML or MDS or MDS/MPN; assay: Clinical study: safety and tolerability of Compound A in combination with azacitidine; type: in vivo, human; conditions: treatment of AML or MDS or MDS/MPN, as of 4 Feb. 2023, 97 patients
Method: The clinical study was conducted to evaluate the combination of Compound A and azacitidine in patients with myeloid malignancies, including acute myeloid leukemia (AML) (either treatment-naïve [TN] unfit for intensive induction chemotherapy or relapsed/refractory [R/R]), myelodysplastic syndrome (MDS), or MDS/myeloproliferative neoplasm (MPN). Patients with AML who were treatment-naive unfit for intensive chemotherapy or who are relapsed/refractory were enrolled into the AML cohorts; and patients with myelodysplastic syndrome (MDS) or MDS/myeloproliferative neoplasm (MPN) who were treatment-naïve with high-risk disease or who were relapsed/refractory were enrolled into the MDS cohorts.
Part 1 AML (Dose Regimen Finding; N≈18 to 36, i.e., a minimum of 6 and a maximum of 12/cohort) studied the safety and tolerability of different dose regimens of Compound A in combination with a fixed dose of azacitidine at 75 mg/m^2 for 7 days. After 3 patients have completed the dose-limiting toxicities (DLT) window, the SMC reviewed all available data and considered the probability of DLT rate to be >20% and recommended whether or not to enroll additional patients (ie, up to 12). […]
All Part 1, Part 2, and Part 3 cohorts were assessed for DLTs. […]

[2] = R/R patients, in combination with azacitidine
[3] = TN patients, in combination with azacitidine

CC(C)c1ccccc1[C@@H]1CCCN1C1CC2(CCN(c3ccc(C(=O)NS(=O)(=O)c4ccc(NCC5CCC(C)(O)CC5)c([N+](=O)[O-])c4)c(Oc4cnc5[nH]ccc5c4)c3)CC2)C1 (stereo partly drawn) [Compound A, 2-((1H-pyrrolo[2,3-b]pyridin-5-yl)oxy)-N-((4-((((1r,4r)-4-hydroxy-4-methylcyclohexyl)methyl)amino)-3-nitrophenyl)sulfonyl)-4-(2-((S)-2-(2-isopropylphenyl)pyrrolidin-1-yl)-7-azaspiro[3.5]nonan-7-yl)benzamide]
CR (patients with AML; [2]): 50% | CR+CRh (patients with AML; [2]): 67% | CR (patients with AML; [3]): 73% | CR+CRh (patients with AML; [3]): 73% | CR/CRh (patients with AML; R/R AML patients, all dose cohorts): 50% | CR+CRh in TN AML achieved by the end of cycle 1 (patients with AML; TN AML patients, responders by end of cycle 1 out of all CR+CRh responders, in combination with azacitidine): 15 of 20 | CR/CRh (patients with AML; TN unfit AML patients, all dose cohorts (40, 80, 160 mg x 10 days, 160 mg x 28 days)): 65% | safety analysis [1]: well-tolerated and safe
